Here are results for 8 compounds from article PMC5988308, “Rhodanine derivatives as potent anti-HIV and anti-HSV microbicides” (PLoS ONE, 2018).

One data set concerns HPV-16 PsVs. In words: HPV-16 inhibition assay in HeLa cells. The following applies: up to 50 μM. Format: cell-based. As to the method: Plasmids and 293TT cells used for pseudovirus (PsV) production were kindly provided by John Schiller (National Cancer Institute, Bethesda, MD). 293TT cell line, derived from human embryonic kidney cells transformed with the simian virus 40 (SV40) large T antigen, was cultured in DMEM (Gibco-BRL, Gaithersburg, MD) supplemented with heat inactivated 10% FCS (Gibco- BRL), Glutamax-I 1% (Invitrogen, Carlsbad, CA) and nonessential amino acids 1% (Sigma Aldrich, Steinheim, Germany). HPV-16 PsVs were produced as described in Cagno et al 2015. 293TT cells were transfected with plasmid expressing the papillomavirus major and minor capsid proteins (L1 and L2, respectively), together with a reporter plasmid expressing GFP. Capsids were allowed to mature overnight in cell lysate; the clarified supernatant was then loaded on top of a density gradient of 27 to 33 to 39% Optiprep at room temperature for 3 h. The material was centrifuged at 28000 rpm for 16 h at 4°C in an SW41.1 rotor (Beckman Coulter, Inc., Fullerton, CA) and then collected by bottom puncture of the tubes. […] The L1 protein content of PsV stocks was determined by comparison with bovine serum albumin standards in Coomassie-stained SDS-polyacrylamide gels. […]

Data set [1] can be described thus: Metabolic stability in human liver microsomes. Format: in vitro ADME. To be noted: HLM, 37°C, 1 h; percentage of compound not metabolized. How it is done:
The incubation mixture (total volume of 500 μL) was constituted by the following components: HLM (0.2 mg/mL), a NADPH regenerating system (NADPH 0.2 mM, […] 1 mM, D-glucose-6-phosphate 4 mM, 4 unit/mL glucose-6-phosphate dehydrogenase and MgCl2 48 mM), 50 μM of each compound in DMSO and phosphate buffer (pH 7.4, 25 mM, up to a final volume of 500 μL). The mixture was incubated at 37°C for 1 h. The reaction was cooled down and quenched with acetonitrile (1.0 mL). After centrifugation (4000 rpm, 10 min), the supernatant was taken, dried under nitrogen flow, suspended in 100 μL of methanol and analyzed by UV/LC-MS to determine the percentage of compound that was not metabolized.
(Microsomes from liver hold many membrane-bound enzymes, among them those of drug oxidation.)

For data set [2], the system named is HIV-1 AD8 (CCR5-tropic strain). As to the kind of experiment: Antiviral activity on TZM-bl cells infected with HIV-1 AD8 (CPRG assay). The following applies: Human immunodeficiency virus 1, TZM-bl cells. Type of data set: cell-based. How it is done: (§1) The human TZM-bl indicator cell line (obtained from the NIH AIDS reagents program, cat. Nr 8129 (www.aidsreagent.org) and maintained at 37°C and 5% CO2 in Dulbecco’s modified Eagle’s medium (DMEM) medium containing 10% fetal bovine serum, 50 μg/mL penicillin, and 50 μg/mL streptomycin. The HIV-1 laboratory strains NL(AD8) (NIH AIDS reagents program, cat.nr 11346), NL4.3 (NIH AIDS reagents program, cat. Nr. 114) were titrated as previously reported. Briefly, serial 5-fold dilutions of each virus were made in quadruplicate wells in 96-well culture plates, in a total volume of 100 μL of growth medium (DMEM), for a total of 8 dilution steps. Freshly trypsinized cells (20,000 cells in 100 μL of growth medium containing 75 μg/mL DEAE-dextran) were added to each well, and the plates were incubated at 37°C in a humidified 5% CO2-95% air environment. After 48 h of incubation, the medium was removed and viral infection was quantified using a β-galactosidase (CPRG) assay (Roche). Twenty thousand TZM-bl cells/well were seeded in 96-well plates in complete DMEM supplemented with 30 μg/mL DEAE-dextran (Sigma-Aldrich). Three hundred times the 50% tissue culture infective dose (TCID50)/mL of each strain was pretreated for 1 h at 37°C with six serial dilutions ([…] to 3.2 nM) of each compound and then added to the cells, as previously described. Vehicle (0.1% dimethyl sulfoxide [DMSO])-treated cells served as a negative control. […] After 2 days, viral infection was quantified using a CPRG assay (Roche). The inhibitory curves were fitted by nonlinear regression, allowing for the calculation of the 50% inhibitory concentration (IC50) using the Prism software. To evaluate the cell toxicity of the compounds, the metabolic XTT [2,3-bis-(2-methoxy-4-nitro-5-sulfophenyl)-2H-tetrazolium-5-carboxanilide] test (Sigma-Aldrich) was performed according to the manufacturer’s instructions.

Data set [3] can be described thus: Cytotoxicity on TZM-bl cells (XTT test). Format: cell-based. To be noted: human, read-out: Citotoxicity (TZM-bl cells) CC50. As to the method:
as §1
On the technique in general: Tetrazolium dyes change colour on reduction, which living cells bring about.

In data set [4] the target is human serum albumin (HSA) (Homo sapiens, UniProt P02768). As to the kind of experiment: Albumin binding fluorimetric assay, HSA. The following applies: fluorescence quenching, 10 μM HSA. As to the method:
The binding of each compounds to HSA (human serum albumin) and BSA (bovine serum albumin) were monitored by fluorescence spectroscopy in order to determine the dissociation constant (Kd). A quantitative analysis of the potential interaction was performed by fluorimetric analysis using 96 multiwell plates: in each well a fixed concentration of HSA or BSA (10μM in phosphate buffer 1 mM), was added with different amounts of tested compound (0.1μM to 500μM by stock solutions in DMSO). […] The obtained fluorescence quenching percentages were plotted against drug concentrations and the relative Kd values were obtained using GraphPad software (version 6.0).

The mark [5] stands for this setting: pre-incubation in complete medium containing fetal bovine serum (FBS), read-out: AD8 EC50 a.
Where [6] appears, read: pre-incubation with virus without serum, read-out: AD8 EC50.

Each structure is given as a SMILES string. Read-outs that look alike come from different tables or passages of the source.

human serum albumin (HSA), sequence (P02768 25-609): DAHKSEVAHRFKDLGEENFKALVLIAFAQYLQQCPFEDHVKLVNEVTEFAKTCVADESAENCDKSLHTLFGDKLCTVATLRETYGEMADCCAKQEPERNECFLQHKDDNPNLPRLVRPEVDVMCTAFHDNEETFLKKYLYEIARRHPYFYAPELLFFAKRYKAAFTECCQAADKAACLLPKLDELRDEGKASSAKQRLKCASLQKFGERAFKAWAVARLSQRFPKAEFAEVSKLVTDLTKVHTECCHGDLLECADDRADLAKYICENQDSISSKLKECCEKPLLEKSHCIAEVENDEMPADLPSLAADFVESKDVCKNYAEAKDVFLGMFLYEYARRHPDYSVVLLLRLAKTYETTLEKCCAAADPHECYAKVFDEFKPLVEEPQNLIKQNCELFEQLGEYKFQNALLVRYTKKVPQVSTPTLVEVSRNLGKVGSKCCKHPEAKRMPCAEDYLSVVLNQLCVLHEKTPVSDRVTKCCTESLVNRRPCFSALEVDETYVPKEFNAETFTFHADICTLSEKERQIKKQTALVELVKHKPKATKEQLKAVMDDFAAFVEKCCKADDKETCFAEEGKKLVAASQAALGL

Take `O=C(O)c1ccc(-c2ccc(/C=C3\SC(=S)N(Cc4ccc(F)cc4)C3=O)o2)cc1O` [Compound 1]: in the data set on HPV-16 PsVs, the “antiviral activity on HPV-16” value was “without any antiviral activity on HPV-16”. The “Metabolic Stability” value in data set [1] was more than 90%. The results for the EC50 in data set [2] (setting [5]) and in data set [2] (setting [6]) were 1395 ± 10 nM and 32.3 ± 3 nM, respectively. In data set [3], the CC50 (as a rule, the concentration that lowers cell viability or growth by half) was more than 20000 nM. Besides, the Kd (in general, the equilibrium constant for the complex coming apart) in data set [4] was found to be 630 ± 100 nM.

Turning to `O=C(O)c1ccc(-c2ccc(/C=C3\SC(=S)N(Cc4ccc(Cl)cc4)C3=O)o2)cc1O` [Compound 2], the “antiviral activity on HPV-16” value with HPV-16 PsVs was “without any antiviral activity on HPV-16”. Besides, in data set [1], the “Metabolic Stability” value was more than 90%. Also, the figures for the EC50 in data set [2] (setting [5]) and in data set [2] (setting [6]) were 650 nM and 6.9 nM, respectively. Moreover, the CC50 in data set [3] was more than 20000 nM. For the same compound, in data set [4], the Kd was determined as 960 ± 100 nM.

On to `O=C(O)c1ccc(-c2ccc(/C=C3\SC(=S)N(CCc4ccc(F)cc4)C3=O)o2)cc1O` [Compound 9a, (Z)-4-(5-((3-(4-fluorophenethyl)-4-oxo-2-thioxothiazolidin-5-ylidene)methyl)furan-2-yl)-2-hydroxybenzoic acid], for which the melting point (in general, the temperature, or range, at which the solid turns liquid) is 292 °C (dec.). Further, in data set [1], the “Metabolic Stability” value is more than 90%. In data set [2] (setting [5]), the EC50 (in general, the concentration that produces a half-maximal response) was found to be 116 ± 24 nM. Further, the EC50 in data set [2] (setting [6]) worked out at 7.5 nM. Further, the CC50 in data set [3] was found to be 2200 nM. Besides, in data set [4], the Kd was 1510 ± 200 nM.

With `Cc1ccc(CCN2C(=O)/C(=C/c3ccc(-c4ccc(C(=O)O)c(O)c4)o3)SC2=S)cc1` [Compound 9b, (Z)-2-hydroxy-4-(5-((3-(4-methylphenethyl)-4-oxo-2-thioxothiazolidin-5-ylidene)methyl)furan-2-yl)benzoic acid], the melting point is 258 °C (dec.). For the same compound, the “Metabolic Stability” value in data set [1] is listed as more than 90%. In addition, in data set [2] (setting [5]), the EC50 came to 404 ± 20 nM. The EC50 in data set [2] (setting [6]) was determined as 46.7 ± 9 nM. Further, in data set [3], the CC50 was more than 20000 nM. In addition, the dissociation constant (Kd) in data set [4] stood at 1570 ± 200 nM.

In the case of `O=C(O)c1ccc(-c2ccc(/C=C3\SC(=S)N(CCCc4ccccc4)C3=O)o2)cc1O` [Compound 9c, (Z)-2-hydroxy-4-(5-((4-oxo-3-(3-phenylpropyl)-2-thioxothiazolidin-5-ylidene)methyl)furan-2-yl)benzoic acid], the melting point was 248 °C (dec.). For the same compound, the “Metabolic Stability” value in data set [1] is given as more than 90%. Besides, the EC50 in data set [2] (setting [5]) came out at 378 ± 15 nM. The EC50 in data set [2] (setting [6]) is 27.5 ± 4 nM. In data set [3], the CC50 was more than 20000 nM. Further, the Kd in data set [4] amounted to 1190 ± 100 nM.

Take `CCc1ccc(CCN2C(=O)/C(=C/c3ccc(-c4ccc(C(=O)O)c(O)c4)o3)SC2=S)cc1` [Compound 9d, (Z)-4-(5-((3-(4-ethylphenethyl)-4-oxo-2-thioxothiazolidin-5-ylidene)methyl)furan-2-yl)-2-hydroxybenzoic acid]: the melting point was 273 °C (dec.). The “Metabolic Stability” value in data set [1] was more than 90%. In data set [2] (setting [5]), the EC50 came to 186 ± 9 nM. Moreover, the EC50 in data set [2] (setting [6]) is 36 ± 3 nM. Besides, in data set [3], the CC50 was found to be 12300 nM. Besides, the Kd in data set [4] is 1090 ± 900 nM.

`O=C(O)c1ccc(-c2ccc(/C=C3\SC(=S)N(c4ccc(F)c(Cl)c4)C3=O)o2)cc1O` [Compound 9e, (Z)-4-(5-((3-(3-chloro-4-fluorophenyl)-4-oxo-2-thioxothiazolidin-5-ylidene)methyl)furan-2-yl)-2-hydroxybenzoic acid]: the “Metabolic Stability” value in data set [1] is more than 90%. Besides, the EC50 in data set [2] (setting [5]) came to 400 ± 14 nM; in data set [2] (setting [6]), 26 ± 6 nM. For the same compound, in data set [3], the CC50 is more than 20000 nM. Further, the Kd in data set [4] came out at 2190 ± 1000 nM.

With `O=C(O)c1ccc(-c2ccc(/C=C3\SC(=S)N(Cc4ccc(Cl)c(F)c4)C3=O)o2)cc1O` [Compound 9f, (Z)-4-(5-((3-(4-chloro-3-fluorobenzyl)-4-oxo-2-thioxothiazolidin-5-ylidene)methyl)furan-2-yl)-2-hydroxybenzoic acid], the “Metabolic Stability” value in data set [1] was more than 90%. The EC50 amounted to 560 ± 10 nM in data set [2] (setting [5]) and 20 ± 4 nM in data set [2] (setting [6]). In data set [3], the half-maximal cytotoxic concentration (CC50) is more than 20000 nM. Besides, the Kd in data set [4] was found to be 2230 ± 1200 nM.
